The source of these data is patent US20120108636A1, “Allosteric Enhancers of th A1 Adenosine Receptor” (King Pharmaceuticals Research and Development, Inc., priority 2008, published 2012).

Some results are limits rather than exact numbers.

Series [1] has as its target T1, human A1 receptors expressed in CHO membranes (Homo sapiens, UniProt P30542).
T1 construct: expressed in transfected cells; host or cells: CHO cells (hCHO-A1 clone), membrane preparation
T1 sequence (P30542 1-326): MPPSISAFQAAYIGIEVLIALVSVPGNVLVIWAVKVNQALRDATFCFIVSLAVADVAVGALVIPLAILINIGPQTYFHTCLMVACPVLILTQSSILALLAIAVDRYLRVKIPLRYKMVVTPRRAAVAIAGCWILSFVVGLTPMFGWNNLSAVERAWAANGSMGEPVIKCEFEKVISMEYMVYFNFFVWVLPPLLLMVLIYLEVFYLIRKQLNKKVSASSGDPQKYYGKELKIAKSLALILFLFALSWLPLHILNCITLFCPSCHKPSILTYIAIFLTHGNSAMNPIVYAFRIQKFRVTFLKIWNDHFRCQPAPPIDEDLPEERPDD
Kind of series: Saturation binding of [3H]CCPA to hCHO-A1. The following applies: compound tested at 10 μM concentration. As to the method: (§1) Membrane Preparation from CHO Cells Transfected with the Human Recombinant A1, A2A and A3 Adenosine Receptors
(§2) The hCHO-A1, hCHO-A2A and hCHO-A3 cell clones are grown adherently and maintained in Dulbecco's modified Eagle's medium with nutrient mixture F12, containing 10% fetal calf serum, penicillin (100 U/mL), streptomycin (100 μg/mL), L-glutamine (2 mM), geneticine (G418) 0.2mg/mL at 37° C. in 5% CO2/95% air. 30 min at 37° C. (Klotz et al. Naunyn-Schmied. Arch Pharm. 1998, 357, 1-9). Cells are split two or three times weekly at a ratio of between 1:5 and 1:10. For membrane preparation the culture medium is removed. The cells are washed with PBS and scraped off T75 flasks in ice-cold hypotonic buffer (5 mM Tris HCl, 2 mM EDTA, pH 7.4). The cell suspension is homogenized with Polytron and the homogenate is spun for 10 min at 1,000×g. The supernatant is then centrifuged for 30 min at 100,000×g. The membrane pellet is resuspended in 50 mM Tris HCl buffer pH 7.4 for The A1 adenosine receptors, 50 mM Tris HCl buffer pH 7.4, 10 mM MgCl2 for A2A adenosine receptors, 50 mM Tris HCl buffer pH 7.4, 10 mM MgCl2, 1 mM EDTA for A3 adenosine receptors and incubated with 3 Ul/mL of adenosine deaminase for 30 min at 37° C. The protein concentration is determined according to a Bio-Rad method (Bradford, 1976) with bovine albumin as a standard reference.
To determine the effect of the compounds of the present invention on the binding to A1, A2A and A3 receptors, membranes from hCHO-A1, hCHO-A2A, hCHO-A3 are incubated in a buffer solution in the absence and in the presence of the examined compounds. Test agents are dissolved in DMSO and added to the assay from a 100-fold concentrated solution in DMSO. Control incubations also contain 1% DMSO. Bound and free radioactivity are separated by filtering the assay mixture through Whatman GF/B glass fibre filters using a Micro-mate 196 cell harvester (Packard Instrument Company). The filter bound radioactivity is counted on Top Count Microplate Scintillation Counter (efficacy 57%) with Micro-Scint 20.
Saturation Binding of [^3H]CCPA to hCHO-A1 […]

The target in series [2] is T1, human A1 receptors expressed in CHO membranes. Briefly: Allosteric enhancement of specific binding of [3H]CCPA to hCHO-A1 membranes. To be noted: compound tested at 10 μM concentration. As for the experimental part: as §1
as §2, with “The membrane pellet is resuspended in 50 mM Tris HCl buffer pH 7.4 for The A1 adenosine receptors, 50 mM Tris HCl buffer pH 7.4, 10 mM MgCl2 for A2A adenosine receptors, 50 mM Tris HCl buffer pH 7.4, 10 mM MgCl2, 1 mM EDTA for A3 adenosine receptors and incubated with 3 Ul/mL of adenosine deaminase for 30 min at 37° C.” left out
To determine the effect of the compounds of the present invention on the binding to A1, A2A and A3 receptors, membranes from hCHO-A1, hCHO-A2A, hCHO-A3 are incubated in a buffer solution in the absence and in the presence of the examined compounds. […] Bound and free radioactivity are separated by filtering the assay mixture through Whatman GF/B glass fibre filters using a Micro-mate 196 cell harvester (Packard Instrument Company). The filter bound radioactivity is counted on Top Count Microplate Scintillation Counter (efficacy 57%) with Micro-Scint 20. […]
Competition experiments are carried out in triplicate in a final volume of 250 μL in test tubes containing 1 nM [^3H]CCPA, 50 mM Tris-HCl, pH 7.4 and 100 μL of diluted membranes and at least six to eight different concentrations of the tested compounds in the range from 1 nM to 50 μM for 90 min at 25° C. […] Allosteric enhancement is measured as the action of different concentrations of the tested compounds to increase the specific binding of 1 nM [^3H]CCPA to hCHO-A1 membranes.

As usually defined, the melting point is the temperature of the solid-liquid transition. On to `Nc1sc(-c2cccs2)c(CN(C2CCCCC2)C2CCCCC2)c1C(=O)c1ccc(Cl)cc1` [Example 30, {2-Amino-4-[(dicyclohexylamino)methyl]-5-(thiophen-2-yl)thiophen-3-yl}(4-chlorophenyl)methanone], for which the melting point was in the range of 197 to 199 °C. Further, in series [1], the “increase in the BMAX value of the agonist [3H]CCPA” value (shortened to “increase in the BMAX value”) was approximately 4.6 fold. Further, the “increase of the A1 specific binding of the agonist [3H]CCPA to human CHO-A1 membranes” value (“increase … to human CHO-A1 membranes” below) in series [2] is not above 4.2 fold.

With `Nc1sc(-c2ccccc2)c(CN(C2CCCCC2)C2CCCCC2)c1C(=O)c1ccc(Cl)cc1` [Example 2, {2-Amino-4-[(dicyclohexylamino)methyl]-5-phenyithiophen-3-yl}(4-chlorophenyl)methanone], the “increase in the BMAX value” value in series [1] was “about 3.5 fold”. The “increase … to human CHO-A1 membranes” value in series [2] was “up to 4.4 fold”.

For `CC(C)(C)CN(Cc1c(-c2ccccc2)sc(N)c1C(=O)c1ccc(Cl)cc1)CC(C)(C)C` [Example 16-9, {2-Amino-4-[(dineopentylamino)methyl]-5-phenylthiophen-3-yl}(4-chlorophenyl)methanone], the “increase in the BMAX value” value in series [1] is approximately 6.3 fold. For the same compound, the “increase … to human CHO-A1 membranes” value in series [2] was not above 5.5 fold.
